Literature values in article PMC4158421, “Screening-based discovery of Aspergillus fumigatus plant-type chitinase inhibitors” (Febs Letters, 2014).

Test system: A. fumigatus biofilm
Design: method as in PMID 23314962

For CC(=O)Nc1nnc(S(N)(=O)=O)s1 [acetazolamide], the “effect on A. fumigatus biofilm biomass” value is given as “reduce A. fumigatus biofilm biomass”.
